The values below come from patent US12595504B2, “Methods for screening compounds for bactericidal activity and for determining the sensitivity of bacterial samples” (priority 2020, dated 2026).

For experiment [1], the system named is Escherichia coli MG1655. Nature of the experiment: Antibiotic MIC determination (serial twofold dilutions, OD600 during 17 hours at 37° C.). The experiment is classed as cell-based. The note with it: Escherichia coli, 37° C. The method, then:
The Minimal Inhibitory Concentration (MIC) of the antibiotics was determined under the same culture conditions as the tests using the ATP assay kit. […] An exponentially growing culture (OD600=0.3) was added to each well (60 μl/well) of a sterile microtiter plate containing the test concentration of antibiotic (40 μl/well). The volume was completed to 120 μl with medium and OD600 nm measurements were performed using a microtiter plate reader (Infinite 200 PRO, TECAN) during 17 hours at 37° C.
In all the following experiments, the MIC values were measured for each antibiotic with parameters such as temperature, OD600 and equipment identical to those used for the bioluminescence assay.

Experiment [2] deals with E. coli MG1655 reporter cells. The experiment is classed as cell-based, Escherichia coli. To be noted: for Shape of ATP release trace: LB medium, FIG. 8; for Shape of ATP release trace / Lag time before ATP / Lag before ATP release (shortest, incompressible value): 37° C.; for Lag before ATP release (shortest, incompressible value): highest concentrations tested. The method, then:
The classical luciferase was from Molecular Probes (ATP Determination Kit (A22066)). The thermostable luciferase was from “CheckLite AT100” (kikkoman). The Luciferin-luciferase reagents were prepared following manufacturer instructions. Bacteria from exponentially growing cultures (OD600=0.3) were added to each well (60 μl/well) of a black 96-microtiter plate (Greiner Bio-one, 655076) and 20 μl of the luciferin-luciferase reagent solution was added. The microtiter plate was incubated 5 min at 37° C. for reaction with the luciferase to eliminate traces of extracellular ATP. Then 40 μl of antibiotic solution (3 times concentrated) prepared in the culture medium were added. Bioluminescence of each well was monitored for 4 hours under shaking (218 rpm) and at 28 or 37° C., depending on the experiments (see legends of Figures). The reagent stability in presence or absence of antibiotics was checked in control experiments without bacteria but with 4 pmoles of ATP. Tests were also performed in 384-microtiter plates (Greiner Bio-one, 784076).
Aminoglycosides are bactericidal antibiotics causing translational miscoding with lethal consequences for the cell. Leakage of small molecules following an aminoglycoside shock was previously identified by different methods including radiolabelling. Therefore, the inventors investigated the response of live cells to aminoglycoside stress.

Where [3] appears, read: MG1655, read-out: MIC in MOPS glucose 0.4%, MOPS minimal medium glucose 0.4%.
Where [4] appears, read: MG1655, LB medium, OD600 0.15 final, read-out: MIC in LB.

Converted amounts (≈) assume the structure as drawn. Where two headings read alike, the source gives them in different places.

For `Cc1cc(NS(=O)(=O)c2ccc(N)cc2)no1` [Sulfamethoxazole], the minimal inhibitory concentration (MIC) in experiment [1] (setting [3]) was found to be 1600 µg/mL (≈ 6320 µM).

Consider `CCN1CCN(C(=O)N[C@@H](C(=O)N[C@@H]2C(=O)N3[C@@H]2SC(C)(C)[C@@H]3C(=O)O)c2ccccc2)C(=O)C1=O` [Piperacillin], for which the MIC in experiment [1] (setting [4]) amounted to 200 µg/mL (≈ 386 µM).

With `CC1(C)S[C@@H]2[C@H](NC(=O)[C@H](N)c3ccccc3)C(=O)N2[C@H]1C(=O)O` [Ampicillin], the minimal inhibitory concentration (MIC) in experiment [1] (setting [3]) and in experiment [1] (setting [4]) was 25 µg/mL (≈ 71.5 µM) in each case. In addition, in experiment [2], the “Shape of ATP release trace” value is “multiphasic”. The “Intensity of ATP release signal in minimal medium compared to rich medium (factor of decrease)” value in experiment [2] (MOPS minimal medium vs LB) turned out to be 10. For the same molecule, the “Lag time before ATP” value in experiment [2] (antibiotic at 6.25 μg/mL, LB) is 108 min; in experiment [2] (antibiotic at 12.5 μg/mL, LB), 43 min; in experiment [2] (antibiotic at 25 μg/mL, LB) it was 23 min; in experiment [2] (antibiotic at 50 μg/mL, LB), 13 min; in experiment [2] (antibiotic at 100 μg/mL, LB) it was 9 min. Besides, the “Lag before ATP release (shortest, incompressible value)” value in experiment [2] (LB) is listed as 9 min.

On to `NCC[C@H](O)C(=O)N[C@@H]1C[C@H](N)[C@@H](O[C@H]2O[C@H](CN)[C@@H](O)[C@H](O)[C@H]2O)[C@H](O)[C@H]1O[C@H]1O[C@H](CO)[C@@H](O)[C@H](N)[C@H]1O` [Amikacin], for which the minimal inhibitory concentration (MIC) is 1.56 µg/mL (≈ 2.66 µM) in experiment [1] (setting [3]) and 12.5 µg/mL (≈ 21.3 µM) in experiment [1] (setting [4]). Moreover, in experiment [2], the “Shape of ATP release trace” value was “bi-phasic”. Besides, the “Lag time before ATP” value was determined as 42 min in experiment [2] (antibiotic at 3.125 μg/mL, LB); 31.0 min in experiment [2] (antibiotic at 6.25 μg/mL, LB); 21.6 min in experiment [2] (antibiotic at 12.5 μg/mL, LB); 16.0 min in experiment [2] (antibiotic at 25 μg/mL, LB); 10.5 min in experiment [2] (antibiotic at 50 μg/mL, LB).

Turning to `NC[C@H]1O[C@H](O[C@H]2[C@H](O)[C@@H](O[C@H]3O[C@H](CO)[C@@H](O)[C@H](N)[C@H]3O)[C@H](N)C[C@@H]2N)[C@H](O)[C@@H](O)[C@@H]1O` [Kanamycin], the results for the MIC in experiment [1] (setting [3]) and in experiment [1] (setting [4]) were 3 µg/mL (≈ 6.19 µM) and 25 µg/mL (≈ 51.6 µM), respectively. Also, the “Lag time before ATP” value in experiment [2] (antibiotic at 6.25 μg/mL, LB) was 50 min; in experiment [2] (antibiotic at 12.5 μg/mL, LB) it was 25 min; in experiment [2] (antibiotic at 25 μg/mL, LB), 16 min; in experiment [2] (antibiotic at 50 μg/mL, LB), 11 min; in experiment [2] (antibiotic at 100 μg/mL, LB) it was 8 min. The “Lag before ATP release (shortest, incompressible value)” value in experiment [2] (LB) is reported as around 4.7 min.

For `O=C(N[C@H](CO)[C@H](O)c1ccc([N+](=O)[O-])cc1)C(Cl)Cl` [Chloramphenicol], the MIC in experiment [1] (setting [3]) and in experiment [1] (setting [4]) was 25 µg/mL (≈ 77.4 µM) each time. Further, the ATP leakage entry in experiment [2] (high concentrations, twice or four times the MIC, LB, FIG. 9) is on record as “important leakage”.

For the molecule `CN[C@@H]1[C@H](O)[C@H](NC)[C@H]2O[C@@]3(O)C(=O)C[C@@H](C)O[C@H]3O[C@@H]2[C@H]1O` [Spectinomycin], the minimum inhibitory concentration (MIC) in experiment [1] (setting [3]) is 100 µg/mL (≈ 301 µM); in experiment [1] (setting [4]), 50 µg/mL (≈ 150 µM). In addition, the “Amplitude of ATP release” value in experiment [2] (bacteriostatic antibiotics, LB, FIG. 9) is given as “very weak amplitude”.

`CC[C@H]1OC(=O)[C@H](C)[C@@H](O[C@H]2C[C@@](C)(OC)[C@@H](O)[C@H](C)O2)[C@H](C)[C@@H](O[C@@H]2O[C@H](C)C[C@H](N(C)C)[C@H]2O)[C@](C)(O)C[C@@H](C)CN(C)[C@H](C)[C@@H](O)[C@]1(C)O` [Azithromycin]: the MIC in experiment [1] (setting [3]) stood at 125 µg/mL (≈ 167 µM); in experiment [1] (setting [4]), 175 µg/mL (≈ 234 µM). In addition, in experiment [2] (LB, FIG. 9), the “High dose at which ATP release was observed” value was 2.5 times the MIC. In addition, the ATP leakage entry in experiment [2] (highest concentration (400 μg/mL), MOPS minimal medium (glucose 0.4%)) is “stimulated a ATP leakage”.

On to `O=C(O)c1cn(C2CC2)c2cc(N3CCNCC3)c(F)cc2c1=O` [Ciprofloxacin], for which the minimum inhibitory concentration (MIC) in experiment [1] (setting [3]) came to 6.25 µg/mL (≈ 18.9 µM); in experiment [1] (setting [4]), 25 µg/mL (≈ 75.4 µM).

`O=C1CN(/N=C/c2ccc([N+](=O)[O-])o2)C(=O)N1` [Nitrofurantoin]: the minimal inhibitory concentration (MIC) in experiment [1] (setting [3]) and in experiment [1] (setting [4]) was 50 µg/mL (≈ 210 µM) each time.

For `CO[C@@H]1[C@@H](OC(N)=O)[C@@H](O)[C@H](Oc2ccc3c(O)c(NC(=O)c4ccc(O)c(CC=C(C)C)c4)c(=O)oc3c2C)OC1(C)C` [Novobiocin], the MIC in experiment [1] (setting [4]) was 200 µg/mL (≈ 326 µM).

A word on the MIC: it is the least concentration at which growth counts as inhibited.
